test system: not listed separately; assay: Apparent permeability of compound across apical to basal side in vinblastine treated human Caco-2 cells at 1 to 10 uM incubated for 15 to 60 mins by HPLC analysis; conditions: not given

Row | SMILES | Papp A→B at 10 µM
1 | Clc1ccc2c(c1)CC1(Cc3nnc([C@H]4CC[C@H](N5CCOCC5)CC4)n3-2)OCCO1 | 4.5 ×10⁻⁶ cm/s
2 | N#CCC(=O)N[C@@H]1Cc2cc(Cl)ccc2-n2c(nnc2[C@H]2CC[C@H](Oc3ccccn3)CC2)C1 | 0.5 ×10⁻⁶ cm/s
3 | O=C(N[C@@H]1Cc2cc(Cl)ccc2-n2c(nnc2[C@H]2CC[C@H](Oc3ccccn3)CC2)C1)C(F)(F)F | 11 ×10⁻⁶ cm/s
4 | FC(F)(F)[C@H]1CC[C@H](c2nnc3n2-c2ccc(Cl)cc2CC2(C3)OCCO2)CC1 | 39 ×10⁻⁶ cm/s

Now from value to compound:

Row | Papp A→B at 10 µM | SMILES
5 | 40 ×10⁻⁶ cm/s | CO[C@H]1Cc2cc(Cl)ccc2-n2c(nnc2[C@H]2CC[C@H](Oc3ccccn3)CC2)C1
6 | 1.8 ×10⁻⁶ cm/s | CC(C)(O)C(=O)N[C@@H]1Cc2cc(Cl)ccc2-n2c(nnc2[C@H]2CC[C@H](Oc3ccccn3)CC2)C1
7 | 30 ×10⁻⁶ cm/s | COCC1Cc2cc(Cl)ccc2-n2c(nnc2[C@H]2CC[C@H](Oc3ccccn3)CC2)C1 (stereo partly drawn)
8 | 38 ×10⁻⁶ cm/s | CO[C@@H]1Cc2cc(Cl)ccc2-n2c(nnc2[C@H]2CC[C@H](Oc3ccccn3)CC2)C1

test system: not listed separately; assay: Efflux ratio of apparent permeability across basolateral to apical side over apical to basolateral side in vinblastine treated human Caco-2 cells at 1 to 10 uM incubated for 15 to 60 hrs by HPLC analysis; conditions: not given

Row | SMILES | efflux ratio at 10 µM
9 | Clc1ccc2c(c1)CC1(Cc3nnc([C@H]4CC[C@H](N5CCOCC5)CC4)n3-2)OCCO1 | 15
10 | N#CCC(=O)N[C@@H]1Cc2cc(Cl)ccc2-n2c(nnc2[C@H]2CC[C@H](Oc3ccccn3)CC2)C1 | 118
11 | O=C(N[C@@H]1Cc2cc(Cl)ccc2-n2c(nnc2[C@H]2CC[C@H](Oc3ccccn3)CC2)C1)C(F)(F)F | 2.9
12 | FC(F)(F)[C@H]1CC[C@H](c2nnc3n2-c2ccc(Cl)cc2CC2(C3)OCCO2)CC1 | 1

Now from value to compound:

Row | efflux ratio at 10 µM | SMILES
13 | 2.7 | CO[C@H]1Cc2cc(Cl)ccc2-n2c(nnc2[C@H]2CC[C@H](Oc3ccccn3)CC2)C1
14 | 37 | CC(C)(O)C(=O)N[C@@H]1Cc2cc(Cl)ccc2-n2c(nnc2[C@H]2CC[C@H](Oc3ccccn3)CC2)C1
15 | 1 | COCC1Cc2cc(Cl)ccc2-n2c(nnc2[C@H]2CC[C@H](Oc3ccccn3)CC2)C1 (stereo partly drawn)
16 | 0.9 | CO[C@@H]1Cc2cc(Cl)ccc2-n2c(nnc2[C@H]2CC[C@H](Oc3ccccn3)CC2)C1

molecular target: T1, Vasopressin V1a receptor (Homo sapiens, UniProt P37288); assay: not given; conditions: not given
T1 sequence (P37288 whole entry): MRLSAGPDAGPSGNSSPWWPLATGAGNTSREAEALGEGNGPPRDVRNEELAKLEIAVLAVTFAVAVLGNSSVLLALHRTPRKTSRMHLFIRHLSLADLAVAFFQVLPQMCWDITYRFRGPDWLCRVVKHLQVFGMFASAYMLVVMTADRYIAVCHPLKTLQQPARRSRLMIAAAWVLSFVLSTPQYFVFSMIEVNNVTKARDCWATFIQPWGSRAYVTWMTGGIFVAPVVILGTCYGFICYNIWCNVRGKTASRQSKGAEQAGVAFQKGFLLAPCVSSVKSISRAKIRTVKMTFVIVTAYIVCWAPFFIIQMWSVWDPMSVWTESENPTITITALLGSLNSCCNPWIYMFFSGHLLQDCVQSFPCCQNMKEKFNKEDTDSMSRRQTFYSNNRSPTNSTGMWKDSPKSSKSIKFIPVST

Row | SMILES | Ki
17 | CO[C@H]1Cc2cc(Cl)ccc2-n2c(nnc2[C@H]2CC[C@H](Oc3ccccn3)CC2)C1 | 2 nM
18 | COCC1Cc2cc(Cl)ccc2-n2c(nnc2[C@H]2CC[C@H](Oc3ccccn3)CC2)C1 (stereo partly drawn) | 0.6 nM
19 | CO[C@@H]1Cc2cc(Cl)ccc2-n2c(nnc2[C@H]2CC[C@H](Oc3ccccn3)CC2)C1 | 0.2 nM

molecular target: T1, Vasopressin V1a receptor; assay: not given; conditions: not given; remark: another data set of the same source

Row | SMILES | IC50
20 | CO[C@H]1Cc2cc(Cl)ccc2-n2c(nnc2[C@H]2CC[C@H](Oc3ccccn3)CC2)C1 | 0.6 nM
21 | COCC1Cc2cc(Cl)ccc2-n2c(nnc2[C@H]2CC[C@H](Oc3ccccn3)CC2)C1 (stereo partly drawn) | 0.8 nM
22 | CO[C@@H]1Cc2cc(Cl)ccc2-n2c(nnc2[C@H]2CC[C@H](Oc3ccccn3)CC2)C1 | 0.6 nM

molecular target: Voltage-gated inwardly rectifying potassium channel KCNH2 (Homo sapiens, UniProt Q12809); assay: not given; conditions: not given
Sequence (Q12809 whole entry): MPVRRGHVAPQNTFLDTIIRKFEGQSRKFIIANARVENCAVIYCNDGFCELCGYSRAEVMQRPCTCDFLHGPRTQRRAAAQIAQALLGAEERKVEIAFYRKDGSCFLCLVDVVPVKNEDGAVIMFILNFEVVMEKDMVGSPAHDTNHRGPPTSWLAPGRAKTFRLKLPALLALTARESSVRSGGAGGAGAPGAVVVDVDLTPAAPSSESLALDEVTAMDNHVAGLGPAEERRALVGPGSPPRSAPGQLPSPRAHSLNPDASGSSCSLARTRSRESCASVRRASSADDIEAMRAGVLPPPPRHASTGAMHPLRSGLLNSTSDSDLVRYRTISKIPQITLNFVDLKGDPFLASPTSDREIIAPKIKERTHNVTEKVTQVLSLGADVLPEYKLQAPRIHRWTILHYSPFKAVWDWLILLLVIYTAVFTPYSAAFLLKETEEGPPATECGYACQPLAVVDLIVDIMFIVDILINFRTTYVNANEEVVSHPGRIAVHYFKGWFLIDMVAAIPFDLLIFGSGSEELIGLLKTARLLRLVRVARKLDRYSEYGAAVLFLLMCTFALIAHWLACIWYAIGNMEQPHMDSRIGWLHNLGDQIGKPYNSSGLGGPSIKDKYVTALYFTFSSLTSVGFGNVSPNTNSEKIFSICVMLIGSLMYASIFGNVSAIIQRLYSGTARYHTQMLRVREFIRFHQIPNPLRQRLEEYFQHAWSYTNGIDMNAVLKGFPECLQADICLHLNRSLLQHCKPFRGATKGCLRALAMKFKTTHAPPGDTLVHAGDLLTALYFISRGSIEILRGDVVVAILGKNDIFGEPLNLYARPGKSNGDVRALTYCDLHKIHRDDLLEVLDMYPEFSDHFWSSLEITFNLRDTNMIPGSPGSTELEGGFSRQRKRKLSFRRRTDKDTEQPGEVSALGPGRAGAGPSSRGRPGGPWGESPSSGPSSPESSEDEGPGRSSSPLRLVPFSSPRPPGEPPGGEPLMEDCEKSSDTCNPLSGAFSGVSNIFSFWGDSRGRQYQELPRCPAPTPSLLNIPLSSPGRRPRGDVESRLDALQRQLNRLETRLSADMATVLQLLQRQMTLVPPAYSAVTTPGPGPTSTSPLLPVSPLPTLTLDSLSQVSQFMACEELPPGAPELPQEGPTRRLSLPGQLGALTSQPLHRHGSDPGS

Row | SMILES | IC50
23 | Clc1ccc2c(c1)CC1(Cc3nnc([C@H]4CC[C@H](N5CCOCC5)CC4)n3-2)OCCO1 | 3500 nM
24 | CO[C@H]1Cc2cc(Cl)ccc2-n2c(nnc2[C@H]2CC[C@H](Oc3ccccn3)CC2)C1 | 10200 nM
25 | CO[C@@H]1Cc2cc(Cl)ccc2-n2c(nnc2[C@H]2CC[C@H](Oc3ccccn3)CC2)C1 | 13800 nM
26 | FC(F)(F)[C@H]1CC[C@H](c2nnc3n2-c2ccc(Cl)cc2CC2(C3)OCCO2)CC1 | > 30000 nM

test system: not given; assay: not given; conditions: human, microsomes, 1 µM

Row | SMILES | CLH
27 | COCC1Cc2cc(Cl)ccc2-n2c(nnc2[C@H]2CC[C@H](Oc3ccccn3)CC2)C1 (stereo partly drawn) | 2.76 mL/h/kg
28 | FC(F)(F)[C@H]1CC[C@H](c2nnc3n2-c2ccc(Cl)cc2CC2(C3)OCCO2)CC1 | 0.012 mL/h/kg

test system: not listed separately; assay: in vitro; conditions: human, microsomes

Row | SMILES | microsomal CLint at 1 µM
29 | N#CCC(=O)N[C@@H]1Cc2cc(Cl)ccc2-n2c(nnc2[C@H]2CC[C@H](Oc3ccccn3)CC2)C1 | 13 µL/min/mg
30 | CC(C)(O)C(=O)N[C@@H]1Cc2cc(Cl)ccc2-n2c(nnc2[C@H]2CC[C@H](Oc3ccccn3)CC2)C1 | 1 µL/min/mg
31 | O=C(N[C@@H]1Cc2cc(Cl)ccc2-n2c(nnc2[C@H]2CC[C@H](Oc3ccccn3)CC2)C1)C(F)(F)F | 2 µL/min/mg

test system: not listed separately; assay: in vitro; conditions: Wistar, rat, microsomes

Row | SMILES | microsomal CLint at 1 µM
32 | Clc1ccc2c(c1)CC1(Cc3nnc([C@H]4CC[C@H](N5CCOCC5)CC4)n3-2)OCCO1 | 6 µL/min/mg
33 | N#CCC(=O)N[C@@H]1Cc2cc(Cl)ccc2-n2c(nnc2[C@H]2CC[C@H](Oc3ccccn3)CC2)C1 | 15 µL/min/mg
34 | O=C(N[C@@H]1Cc2cc(Cl)ccc2-n2c(nnc2[C@H]2CC[C@H](Oc3ccccn3)CC2)C1)C(F)(F)F | 4 µL/min/mg
35 | FC(F)(F)[C@H]1CC[C@H](c2nnc3n2-c2ccc(Cl)cc2CC2(C3)OCCO2)CC1 | 16 µL/min/mg

The next lines start with the values.

Row | microsomal CLint at 1 µM | SMILES
36 | 33 µL/min/mg | CO[C@H]1Cc2cc(Cl)ccc2-n2c(nnc2[C@H]2CC[C@H](Oc3ccccn3)CC2)C1
37 | 3 µL/min/mg | CC(C)(O)C(=O)N[C@@H]1Cc2cc(Cl)ccc2-n2c(nnc2[C@H]2CC[C@H](Oc3ccccn3)CC2)C1
38 | 41 µL/min/mg | CO[C@@H]1Cc2cc(Cl)ccc2-n2c(nnc2[C@H]2CC[C@H](Oc3ccccn3)CC2)C1

test system: not listed separately; assay: in vitro; conditions: NMRI, mouse, microsomes

Row | SMILES | microsomal CLint at 1 µM
39 | COCC1Cc2cc(Cl)ccc2-n2c(nnc2[C@H]2CC[C@H](Oc3ccccn3)CC2)C1 (stereo partly drawn) | 126 µL/min/mg
40 | FC(F)(F)[C@H]1CC[C@H](c2nnc3n2-c2ccc(Cl)cc2CC2(C3)OCCO2)CC1 | 34 µL/min/mg

test system: not listed separately; assay: in vitro; conditions: CD-1, mouse, liver microsomes

Row | SMILES | microsomal CLint at 1 µM
41 | Clc1ccc2c(c1)CC1(Cc3nnc([C@H]4CC[C@H](N5CCOCC5)CC4)n3-2)OCCO1 | 7 µL/min/mg
42 | N#CCC(=O)N[C@@H]1Cc2cc(Cl)ccc2-n2c(nnc2[C@H]2CC[C@H](Oc3ccccn3)CC2)C1 | 19 µL/min/mg
43 | O=C(N[C@@H]1Cc2cc(Cl)ccc2-n2c(nnc2[C@H]2CC[C@H](Oc3ccccn3)CC2)C1)C(F)(F)F | 18 µL/min/mg

The next lines start with the values.

Row | microsomal CLint at 1 µM | SMILES
44 | 66 µL/min/mg | CO[C@H]1Cc2cc(Cl)ccc2-n2c(nnc2[C@H]2CC[C@H](Oc3ccccn3)CC2)C1
45 | 16 µL/min/mg | CC(C)(O)C(=O)N[C@@H]1Cc2cc(Cl)ccc2-n2c(nnc2[C@H]2CC[C@H](Oc3ccccn3)CC2)C1
46 | 25 µL/min/mg | CO[C@@H]1Cc2cc(Cl)ccc2-n2c(nnc2[C@H]2CC[C@H](Oc3ccccn3)CC2)C1

test system: not listed separately; assay: animal or person; conditions: Mus musculus, NMRI, po, read-out: INH

Row | SMILES | inhibition in vivo at 10 mg/kg
47 | CO[C@H]1Cc2cc(Cl)ccc2-n2c(nnc2[C@H]2CC[C@H](Oc3ccccn3)CC2)C1 | 71%
48 | CO[C@@H]1Cc2cc(Cl)ccc2-n2c(nnc2[C@H]2CC[C@H](Oc3ccccn3)CC2)C1 | 67%
49 | FC(F)(F)[C@H]1CC[C@H](c2nnc3n2-c2ccc(Cl)cc2CC2(C3)OCCO2)CC1 | 41%

test system: not listed separately; assay: animal or person; conditions: Mus musculus, NMRI, po, read-out: INH; remark: another data set of the same source

Row | SMILES | inhibition in vivo at 3 mg/kg
50 | CO[C@H]1Cc2cc(Cl)ccc2-n2c(nnc2[C@H]2CC[C@H](Oc3ccccn3)CC2)C1 | 69%
51 | CO[C@@H]1Cc2cc(Cl)ccc2-n2c(nnc2[C@H]2CC[C@H](Oc3ccccn3)CC2)C1 | 73%
52 | FC(F)(F)[C@H]1CC[C@H](c2nnc3n2-c2ccc(Cl)cc2CC2(C3)OCCO2)CC1 | 0%

test system: not listed separately; assay: animal or person; conditions: Rattus norvegicus, po, read-out: INH

Row | SMILES | inhibition in vivo at 10 mg/kg
53 | CO[C@@H]1Cc2cc(Cl)ccc2-n2c(nnc2[C@H]2CC[C@H](Oc3ccccn3)CC2)C1 | > 60%
